# What was measured:
# MEL-JUSO = test: cells; assay type: functional, cell-based; settings: Homo sapiens;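 note: growth inhibition of human MEL-JUSO cells, read out with a cell viability assay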
# Description: SANGER: Inhibition of human MEL-JUSO cell growth in a cell viability assay.
# MEL-HO = test: cells; assay type: functional, cell-based; settings: Homo sapiens
# Description: SANGER: Inhibition of human MEL-HO cell growth in a cell viability assay.
# KP-4 = test: cells; assay type: functional, cell-based; settings: Homo sapiens;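 note: human KP-4 cells, with growth inhibition read out through a cell viability assay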
# Description: SANGER: Inhibition of human KP-4 cell growth in a cell viability assay.
# LoVo = test: cells; assay type: functional, cell-based; settings: Homo sapiens;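 note: growth inhibition of human LoVo cells, read out with a cell viability assay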
# Description: SANGER: Inhibition of human LoVo cell growth in a cell viability assay.
# BT-20 = test: cells; assay type: functional, cell-based; settings: Homo sapiens;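 note: cell viability assay measuring suppression of growth in human BT-20 cells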
# Description: SANGER: Inhibition of human BT-20 cell growth in a cell viability assay.
# MONO-MAC-6 = test: cells; assay type: functional, cell-based, Homo sapiens; settings: Homo sapiens, MONO-MAC-6;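 note: cell viability assay measuring growth inhibition of human MONO-MAC-6 cells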
# Description: SANGER: Inhibition of human MONO-MAC-6 cell growth in a cell viability assay.
# Daudi = test: cells; assay type: functional, cell-based, Homo sapiens; settings: Homo sapiens, Daudi;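 note: growth inhibition of Daudi cells, read out by a viability assay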
# Description: SANGER: Inhibition of human Daudi cell growth in a cell viability assay.
# KMS-12-PE = test: cells; assay type: functional, cell-based, Homo sapiens; settings: Homo sapiens, KMS-12-PE;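 note: growth inhibition of human KMS-12-PE cells, measured with a cell viability assay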
# Description: SANGER: Inhibition of human KMS-12-PE cell growth in a cell viability assay.
# NALM-6 = test: cells; assay type: functional, cell-based, Homo sapiens; settings: Homo sapiens, NALM-6;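 note: growth inhibition of NALM-6 cells, read out with a cell viability assay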
# Description: SANGER: Inhibition of human NALM-6 cell growth in a cell viability assay.
# A673 = test: cells; assay type: functional, cell-based; settings: Homo sapiens;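 note: growth inhibition of human A673 cells, read out through a cell viability assay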
# Description: SANGER: Inhibition of human A673 cell growth in a cell viability assay.
# MC-CAR = test: cells; assay type: functional, cell-based, Homo sapiens; settings: Homo sapiens, MC-CAR;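 note: growth inhibition of the human MC-CAR cell line, read out by a cell viability assay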
# Description: SANGER: Inhibition of human MC-CAR cell growth in a cell viability assay.
# NCI-H1755 = test: cells; assay type: functional, cell-based; settings: Homo sapiens;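 note: cell viability readout used to measure growth inhibition of NCI-H1755 cells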
# Description: SANGER: Inhibition of human NCI-H1755 cell growth in a cell viability assay.
# HCC1419 = test: cells; assay type: functional, cell-based; settings: Homo sapiens;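 note: growth inhibition of human HCC1419 cells, read out as cell viability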
# Description: SANGER: Inhibition of human HCC1419 cell growth in a cell viability assay.
# NCI-H1882 = test: cells; assay type: functional, cell-based, Homo sapiens; settings: Homo sapiens, NCI-H1882;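 note: growth inhibition of the cell line, determined with a viability assay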
# Description: SANGER: Inhibition of human NCI-H1882 cell growth in a cell viability assay.
# EFM-19 = test: cells; assay type: functional, cell-based; settings: Homo sapiens;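 note: growth inhibition of human EFM-19 cells, measured in a cell viability assay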
# Description: SANGER: Inhibition of human EFM-19 cell growth in a cell viability assay.
# Raji = test: cells; assay type: functional, cell-based, Homo sapiens; settings: Homo sapiens, Raji;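 note: cell viability assay measuring inhibition of Raji cell growth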
# Description: SANGER: Inhibition of human Raji cell growth in a cell viability assay.
# SK-MES-1 = test: cells; assay type: functional, cell-based; settings: Homo sapiens;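 note: growth inhibition of human SK-MES-1 cells, read out with a cell viability assay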
# Description: SANGER: Inhibition of human SK-MES-1 cell growth in a cell viability assay.
# UMUC3 = test: cells; assay type: functional, cell-based; settings: Homo sapiens;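 note: growth inhibition of human UM-UC-3 cells, read out with a cell viability assay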
# Description: SANGER: Inhibition of human UM-UC-3 cell growth in a cell viability assay.
# CAKI-1 = test: cells; assay type: functional, cell-based; settings: Homo sapiens;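 note: growth inhibition of CAKI-1 cells, measured by a cell viability assay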
# Description: SANGER: Inhibition of human CAKI-1 cell growth in a cell viability assay.
# BXPC-3 = test: cells; assay type: functional, cell-based; settings: Homo sapiens;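 note: growth inhibition of human BxPC-3 cells, read out by a cell viability assay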
# Description: SANGER: Inhibition of human BxPC-3 cell growth in a cell viability assay.
# P12-Ichikawa = test: cells; assay type: functional, cell-based; settings: Homo sapiens
# ABC-1 = test: cells; assay type: functional, cell-based; settings: Homo sapiens;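 note: growth inhibition of human ABC-1 cells, read out by a cell viability assay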
# Description: SANGER: Inhibition of human ABC-1 cell growth in a cell viability assay.
# NCI-H64 = test: cells; assay type: functional, cell-based, Homo sapiens; settings: Homo sapiens, NCI-H64;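 note: growth inhibition of NCI-H64 cells, read out with a cell viability assay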
# Description: SANGER: Inhibition of human NCI-H64 cell growth in a cell viability assay.
# D-542MG = test: cells; assay type: functional, cell-based; settings: Homo sapiens
# Description: SANGER: Inhibition of human D-542MG cell growth in a cell viability assay.
# NCI-H2087 = test: cells; assay type: functional, cell-based; settings: Homo sapiens;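 note: growth inhibition determined with a cell viability readout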
# Description: SANGER: Inhibition of human NCI-H2087 cell growth in a cell viability assay.
# U-251 = test: cells; assay type: functional, cell-based; settings: Homo sapiens;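 note: growth inhibition of human U-251 cells, read out through a cell viability assay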
# Description: SANGER: Inhibition of human U251 cell growth in a cell viability assay.
# NCI-H524 = test: cells; assay type: functional, cell-based, Homo sapiens; settings: Homo sapiens, NCI-H524;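 note: growth inhibition of human NCI-H524 cells, read out through a cell viability assay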
# Description: SANGER: Inhibition of human NCI-H524 cell growth in a cell viability assay.
# SNU-387 = test: cells; assay type: functional, cell-based; settings: Homo sapiens
# Description: SANGER: Inhibition of human SNU-387 cell growth in a cell viability assay.
# GDM-1 = test: cells; assay type: functional, cell-based, Homo sapiens; settings: Homo sapiens, GDM-1; read-out: IC50;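 note: cell viability readout used to measure growth inhibition of human GDM-1 cells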
# Description: SANGER: Inhibition of human GDM-1 cell growth in a cell viability assay.
# HTC-C3 = test: cells; assay type: functional, cell-based; settings: Homo sapiens;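 note: inhibition of cell growth, read out with a cell viability assay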
# Description: SANGER: Inhibition of human HTC-C3 cell growth in a cell viability assay.
# CESS = test: SANGER: Inhibition of human CESS cell growth in a cell viability assay.; assay type: functional, cell-based; settings: Homo sapiens, CESS
# NCI-H2228 = test: cells; assay type: functional, cell-based; settings: Homo sapiens;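 note: growth inhibition of human NCI-H2228 cells, read out by a cell viability assay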
# Description: SANGER: Inhibition of human NCI-H2228 cell growth in a cell viability assay.
# UMC-11 = test: cells; assay type: functional, cell-based; settings: Homo sapiens;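 note: growth inhibition of UMC-11 cells, read out with a cell viability assay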
# Description: SANGER: Inhibition of human UMC-11 cell growth in a cell viability assay.
# NCI-H2342 = test: cells; assay type: functional, cell-based; settings: Homo sapiens;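 note: growth inhibition of the cancer cell line, determined with a cell viability assay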
# Description: SANGER: Inhibition of human NCI-H2342 cell growth in a cell viability assay.
# SW13 = test: cells; assay type: functional, cell-based; settings: Homo sapiens;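 note: IC50 is inhibition of SW13 cell growth, read out with a cell viability assay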
# Description: SANGER: Inhibition of human SW13 cell growth in a cell viability assay.
# DMS-153 = test: cells; assay type: functional, cell-based, Homo sapiens; settings: Homo sapiens, DMS-153
# Description: SANGER: Inhibition of human DMS-153 cell growth in a cell viability assay.
# PC-3 = test: cells; assay type: functional, cell-based; settings: Homo sapiens
# Description: SANGER: Inhibition of human PC-3 cell growth in a cell viability assay.
# CAL-120 = test: cells; assay type: functional, cell-based; settings: Homo sapiens;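 note: cell growth inhibition, read out as cell viability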
# Description: SANGER: Inhibition of human CAL-120 cell growth in a cell viability assay.
# SK-LU-1 = test: cells; assay type: functional, cell-based; settings: Homo sapiens;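 note: cell viability assay measuring growth inhibition of human SK-LU-1 cells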
# Description: SANGER: Inhibition of human SK-LU-1 cell growth in a cell viability assay.
# NB1 = test: cells; assay type: functional, cell-based, Homo sapiens; settings: Homo sapiens, NB1;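 note: reduction of NB1 cell proliferation, read out with a viability assay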
# Description: SANGER: Inhibition of human NB1 cell growth in a cell viability assay.
# NCI-H889 = test: cells; assay type: functional, cell-based, Homo sapiens; settings: Homo sapiens, NCI-H889;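 note: cell growth inhibition of the cell line, read out with a viability assay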
# Description: SANGER: Inhibition of human NCI-H889 cell growth in a cell viability assay.
# KYSE-180 = test: cells; assay type: functional, cell-based; settings: Homo sapiens;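 note: growth inhibition of KYSE-180 cells, read out with a cell viability assay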
# Description: SANGER: Inhibition of human KYSE-180 cell growth in a cell viability assay.
# DG-75 = test: cells; assay type: functional, cell-based, Homo sapiens; settings: Homo sapiens, DG-75;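 note: growth inhibition of DG-75 cells, read out with a cell viability assay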
# Description: SANGER: Inhibition of human DG-75 cell growth in a cell viability assay.
# MCF7 = test: cells; assay type: functional, cell-based; settings: Homo sapiens;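 note: growth inhibition of human MCF7 cells, read out with a cell viability assay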
# Description: SANGER: Inhibition of human MCF7 cell growth in a cell viability assay.
# EHEB = test: cells; assay type: functional, cell-based; settings: Homo sapiens;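 note: growth inhibition of human EHEB cells, read out with a cell viability assay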
# Description: SANGER: Inhibition of human EHEB cell growth in a cell viability assay.
# SK-OV-3 = test: cells; assay type: functional, cell-based; settings: Homo sapiens;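 note: growth inhibition of SK-OV-3 human cells, read out with a cell viability assay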
# Description: SANGER: Inhibition of human SK-OV-3 cell growth in a cell viability assay.
# LCLC-97TM1 = test: cells; assay type: functional, cell-based; settings: Homo sapiens;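 note: cell viability assay measuring growth inhibition of human LCLC-97TM1 cells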
# Description: SANGER: Inhibition of human LCLC-97TM1 cell growth in a cell viability assay.
# GCT = test: cells; assay type: functional, cell-based; settings: Homo sapiens;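 note: GCT cell line proliferation inhibition, read out with a cell viability assay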
# Description: SANGER: Inhibition of human GCT cell growth in a cell viability assay.
# DoTc2-4510 = test: cells; assay type: functional, cell-based; settings: Homo sapiens
# YAPC = test: cells; assay type: functional, cell-based; settings: Homo sapiens;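 note: growth inhibition of YAPC cells, measured with a cell viability assay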
# Description: SANGER: Inhibition of human YAPC cell growth in a cell viability assay.
# KYSE-70 cell line = test: cells; assay type: functional, cell-based; settings: Homo sapiens;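 note: cell viability assay read-out, with IC50 expressing suppression of KYSE-70 cell growth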
# Description: SANGER: Inhibition of human KYSE-70 cell growth in a cell viability assay.
# KYSE-410 = test: cells; assay type: functional, cell-based; settings: Homo sapiens;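 note: growth inhibition of KYSE-410 cells, measured through a cell viability readout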
# Description: SANGER: Inhibition of human KYSE-410 cell growth in a cell viability assay.
# A-427 = test: cells; assay type: functional, cell-based; settings: Homo sapiens;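 note: growth inhibition of human A-427 cells, read out by a cell viability assay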
# Description: SANGER: Inhibition of human A427 cell growth in a cell viability assay.
# HT-1376 = test: cells; assay type: functional, cell-based; settings: Homo sapiens
# Description: SANGER: Inhibition of human HT-1376 cell growth in a cell viability assay.
# LCLC-103H cell line = test: cells; assay type: functional, cell-based; settings: Homo sapiens
# Description: SANGER: Inhibition of human LCLC-103H cell growth in a cell viability assay.
# NCI-H1793 = test: cells; assay type: functional, cell-based; settings: Homo sapiens;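 note: cell growth inhibition, read out by a cell viability assay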
# Description: SANGER: Inhibition of human NCI-H1793 cell growth in a cell viability assay.
# OVCAR-3 = test: cells; assay type: functional, cell-based; settings: Homo sapiens;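 note: growth inhibition of human OVCAR-3 cells, determined by a cell viability assay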
# Description: SANGER: Inhibition of human OVCAR-3 cell growth in a cell viability assay.
# HuCCT-1 = test: cells; assay type: functional, cell-based, HuCCT1; settings: Homo sapiens;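 note: growth inhibition of HuCCT-1 cells, read out by a cell viability assay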
# Description: SANGER: Inhibition of human HuCCT1 cell growth in a cell viability assay.
# TE-441-T = test: cells; assay type: functional, cell-based, Homo sapiens; settings: Homo sapiens, TE-441-T
# Description: SANGER: Inhibition of human TE-441-T cell growth in a cell viability assay.
structure (smiles),measurement,setting,value
OC[C@H](Cc1ccccc1)Nc1nc(Oc2ccc3c(c2)CCC3)nc2c1ncn2Cc1ccc(-c2ccccc2)cc1,IC50,MEL-JUSO,7.9 µM
same,IC50,MEL-HO,8.39 µM
same,IC50,KP-4,> 10.2 µM
same,IC50,LoVo,4.56 µM
same,IC50,BT-20,> 10.2 µM
same,IC50,MONO-MAC-6,> 10.2 µM
same,IC50,Daudi,> 10.2 µM
same,IC50,KMS-12-PE,> 10.2 µM
same,IC50,NALM-6,3.51 µM
same,IC50,A673,> 10.2 µM
same,IC50,MC-CAR,> 10.2 µM
same,IC50,NCI-H1755,> 10.2 µM
same,IC50,HCC1419,> 10.2 µM
same,IC50,NCI-H1882,> 10.2 µM
same,IC50,EFM-19,> 10.2 µM
same,IC50,Raji,> 10.2 µM
same,IC50,SK-MES-1,8.44 µM
same,IC50,UMUC3,> 10.2 µM
same,IC50,CAKI-1,> 10.2 µM
same,IC50,BXPC-3,> 10.2 µM
same,IC50,P12-Ichikawa,7.93 µM
same,IC50,ABC-1,> 10.2 µM
same,IC50,NCI-H64,> 10.2 µM
same,IC50,D-542MG,> 10.2 µM
same,IC50,NCI-H2087,> 10.2 µM
same,IC50,U-251,> 10.2 µM
same,IC50,NCI-H524,> 10.2 µM
same,IC50,SNU-387,> 10.2 µM
same,IC50,GDM-1,3.33 µM
same,IC50,HTC-C3,> 10.2 µM
same,IC50,CESS,> 10.2 µM
same,IC50,NCI-H2228,> 10.2 µM
same,IC50,UMC-11,> 10.2 µM
same,IC50,NCI-H2342,3.72 µM
same,IC50,SW13,> 10.2 µM
same,IC50,DMS-153,> 10.2 µM
same,IC50,PC-3,> 10.2 µM
same,IC50,CAL-120,> 10.2 µM
same,IC50,SK-LU-1,> 10.2 µM
same,IC50,NB1,9.3 µM
same,IC50,NCI-H889,> 10.2 µM
same,IC50,KYSE-180,> 10.2 µM
same,IC50,DG-75,> 10.2 µM
same,IC50,MCF7,2.26 µM
same,IC50,EHEB,> 10.2 µM
same,IC50,SK-OV-3,> 10.2 µM
same,IC50,LCLC-97TM1,6.43 µM
same,IC50,GCT,> 10.2 µM
same,IC50,DoTc2-4510,> 10.2 µM
same,IC50,YAPC,> 10.2 µM
same,IC50,KYSE-70 cell line,> 10.2 µM
same,IC50,KYSE-410,6.97 µM
same,IC50,A-427,> 10.2 µM
same,IC50,HT-1376,> 10.2 µM
same,IC50,LCLC-103H cell line,> 10.2 µM
same,IC50,NCI-H1793,> 10.2 µM
same,IC50,OVCAR-3,> 10.2 µM
same,IC50,HuCCT-1,> 10.2 µM
same,IC50,TE-441-T,> 10.2 µM
COC(=O)[C@H](CCSC)NC(=O)c1ccc(NC[C@@H](N)CS)cc1-c1ccccc1,IC50,MEL-JUSO,0.184 µM
same,IC50,MEL-HO,> 1.02 µM
same,IC50,KP-4,> 1.02 µM
same,IC50,LoVo,> 1.02 µM
same,IC50,BT-20,> 1.02 µM
same,IC50,MONO-MAC-6,> 1.02 µM
same,IC50,Daudi,> 1.02 µM
same,IC50,KMS-12-PE,> 1.02 µM
same,IC50,NALM-6,> 1.02 µM
same,IC50,A673,> 1.02 µM
same,IC50,MC-CAR,> 1.02 µM
same,IC50,NCI-H1755,> 1.02 µM
same,IC50,HCC1419,> 1.02 µM
same,IC50,NCI-H1882,> 1.02 µM
same,IC50,EFM-19,> 1.02 µM
same,IC50,Raji,> 1.02 µM
same,IC50,SK-MES-1,> 1.02 µM
same,IC50,UMUC3,> 1.02 µM
same,IC50,CAKI-1,> 1.02 µM
same,IC50,BXPC-3,> 1.02 µM
same,IC50,P12-Ichikawa,> 1.02 µM
same,IC50,ABC-1,> 1.02 µM
same,IC50,NCI-H64,> 1.02 µM
same,IC50,D-542MG,> 1.02 µM
same,IC50,NCI-H2087,> 1.02 µM
same,IC50,U-251,> 1.02 µM
same,IC50,NCI-H524,> 1.02 µM
same,IC50,SNU-387,> 1.02 µM
same,IC50,GDM-1,> 1.02 µM
same,IC50,HTC-C3,> 1.02 µM
same,IC50,CESS,> 1.02 µM
same,IC50,NCI-H2228,> 1.02 µM
same,IC50,UMC-11,> 1.02 µM
same,IC50,NCI-H2342,> 1.02 µM
same,IC50,SW13,> 1.02 µM
same,IC50,DMS-153,> 1.02 µM
same,IC50,PC-3,> 1.02 µM
same,IC50,CAL-120,> 1.02 µM
same,IC50,SK-LU-1,> 1.02 µM
same,IC50,NB1,> 1.02 µM
same,IC50,NCI-H889,> 1.02 µM
same,IC50,KYSE-180,> 1.02 µM
same,IC50,DG-75,> 1.02 µM
same,IC50,MCF7,> 1.02 µM
same,IC50,EHEB,> 1.02 µM
same,IC50,SK-OV-3,> 1.02 µM
same,IC50,LCLC-97TM1,> 1.02 µM
same,IC50,GCT,> 1.02 µM
same,IC50,DoTc2-4510,> 1.02 µM
same,IC50,YAPC,> 1.02 µM
same,IC50,KYSE-70 cell line,> 1.02 µM
same,IC50,KYSE-410,> 1.02 µM
same,IC50,A-427,> 1.02 µM
same,IC50,HT-1376,> 1.02 µM
same,IC50,LCLC-103H cell line,> 1.02 µM
same,IC50,NCI-H1793,> 1.02 µM
same,IC50,OVCAR-3,> 1.02 µM
same,IC50,HuCCT-1,> 1.02 µM
same,IC50,TE-441-T,> 1.02 µM

# Reference: ChEMBL document CHEMBL1201861, “Genomics of Drug Sensitity in Cancer screening data, Wellcome Trust Sanger Institute”
